Results as given in patent EP0067666A1, “Salts of antimicrobial naphthyridine and quinoline compounds and their production” (priority 1981, dated 1982).
Converted amounts (≈) assume the structure as drawn. Like-named read-outs stand apart in the source and are kept apart here. Marks after values point to notes of the source that are not given here.

Assays:
Format in all cases: physicochemical
[1] = Solubility of lyophilized and crystalline solids; conditions: for Conc. of CPD A mg/ml Lyo. / solubility: not necessarily maximum value
[2] = 10x dilution of soluble forms with standard IV solutions (pH, precipitate); conditions: for Solution 1 ppt 24 hr / Solution 3 ppt 24 hr / Solution 2 ppt 24 hr / Solution 4 ppt 24 hr: precipitate at 24 hr; for Concen. of Cpd A: undiluted solution used for the 10x dilutions; for Solution 1 ppt 4 hr / Solution 3 ppt 4 hr / Solution 2 ppt 4 hr / Solution 4 ppt 4 hr: precipitate at 4 hr
Description: (§1) The amount of Compound A or Compound B calculated for selected concentrations was weighed into volumetric flasks. Equimolar quantities of combining acid, amino acid, or base were added either as solutions or in dry form. Deionized water was added to bring the volume to that desired for the preselected concentrations.. All flasks were sonicated for 15 minutes, allowed to stand at room temperature for 30 minutes, then filtered through a fine frit sintered glass funnel. After the pH of the filtrate was taken, suitable dilutions were made into 0.1N HCl for ultraviolet spectrophotometric assay of concentration. Ten fold dilutions of the original filtrates were made into standard I.V. solutions.

[3] = Solubility screening procedure (concentration and pH of filtrate); conditions: for Conc. of CPD A: compound A + equimolar acid; for Conc. of CPD A / Conc. of CPD B: amino acid or base in deionized water, room temperature, filtrate, UV assay; for pH of Solution: pH of the filtrate; for Conc. of CPD B: compound B + equimolar acid
Description: as §1

[4] = Cpd A salt solution diluted 10x with 0.9% NaCl
[5] = Cpd A salt solution diluted 10x with 5% Dextrose
[6] = Cpd A salt solution diluted 10x with 5% Dextrose + 0.9% NaCl
[7] = Cpd A salt solution diluted 10x with Lactated Ringer's Solution
[8] = concentrated Cpd B solution (154-221 mg/ml) diluted 10x with 5% Dextrose
[9] = concentrated Cpd B solution (154-221 mg/ml) diluted 10x with 5% Dextrose + 0.9% NaCl
[10] = concentrated Cpd B solution (154-221 mg/ml) diluted 10x with Lactated Ringer's Solution
[11] = concentrated Cpd B solution (155-221 mg/ml) diluted 10x with 0.9% NaCl
[12] = concentrated Cpd B solution diluted 10x with 5% Dextrose + 0.9% NaCl
[13] = concentrated Cpd B solution diluted 10x with 5% Dextrose
[14] = concentrated Cpd B solution diluted 10x with Lactated Ringer's Solution
[15] = undiluted concentrated Cpd B solution used for the Solution 1 dilution
[16] = undiluted concentrated solution (at least 155 mg/ml) used for the Solution 1 dilution (for most salts for all four solutions)
[17] = low-concentration Cpd B solution (26.2-52 mg/ml) diluted 10x with 0.9% NaCl
[18] = separate undiluted concentrated Cpd B solution used for Solutions 2-4 only
[19] = separate undiluted concentrated solution used for Solutions 2-4 only
[20] = undiluted low-concentration Cpd B solution (26.2-52 mg/ml)
[21] = undiluted low-concentration solution (26.2-52 mg/ml), diluted with Solution 1 only

SMILES	pH of Solution Cryst. ([1]; CPD A salt, crystalline solid)	pH of Solution Lyo. ([1]; CPD A salt, lyophilized solid)	Conc. of CPD A mg/ml Lyo. ([1]; lyophilized solid)	Solution 1 pH dil [2, 4]	Solution 1 ppt 24 hr [2, 4]	Solution 2 pH dil [2, 5]	Solution 3 pH dil [2, 6]	Solution 3 ppt 24 hr [2, 6]	Solution 2 ppt 24 hr [2, 5]	Solution 4 pH dil [2, 7]	Solution 4 ppt 24 hr [2, 7]	pH of Solut. ([2]; undiluted Cpd A solution)	Concen. of Cpd A [2]	pH of Solution Cryst. ([1]; CPD B salt, crystalline solid)	Solution 2 pH dil [2, 8]	Solution 3 pH dil [2, 9]	Solution 4 pH dil [2, 10]	Solution 1 pH dil [2, 11]	Solution 1 ppt 4 hr [2, 11]	Solution 1 ppt 24 hr [2, 11]	further results
CCn1cc(C(=O)O)c(=O)c2cc(F)c(N3CCNCC3)cc21 [A Lactic]	5.15	4.6	256 mg/mL	4.3	no	4.8	4.2	no	no	4.5	no	4.17	193000 µg/mL	–	–	–	–	–	–	–	Conc. of CPD A [3]: 198000 µg/mL; pH of Solution ([3]; CPD A solutions): 4.05
CCn1cc(C(=O)O)c(=O)c2cc(F)c(N3CCNCC3)nc21 [B D-Gluconic]	–	–	–	–	–	–	–	–	–	–	–	–	–	4.78	4.5	4.8	4.6	4.6	no	yes	pH of Solution Lyo. ([1]; CPD B salt, lyophilized solid): 4.8; Solution 3 ppt 4 hr [2, 12]: no; Solution 3 ppt 24 hr [2, 12]: yes; Solution 2 ppt 24 hr [2, 13]: no; Solution 4 ppt 24 hr [2, 14]: no; pH of Solut. [2, 15]: 4.6; Concen. of Cpd B [2, 16]: 168000 µg/mL
CCn1cc(C(=O)O)c(=O)c2cc(F)c(N3CCNCC3)cc21 [A L-Aspartic]	4.8	4.5	256 mg/mL	5.05	no	4.83	4.84	no	slight	5.02	no	4.88	174000 µg/mL	–	–	–	–	–	–	–	Conc. of CPD A [3]: 174000 µg/mL; pH of Solution ([3]; CPD A solutions): 4.88
CCn1cc(C(=O)O)c(=O)c2cc(F)c(N3CCNCC3)cc21 [A D-Gluconic]	4.83	5.1	255 mg/mL	4.4	no	4.3	4.4	no	no	4.7	no	4.30	182000 µg/mL	–	–	–	–	–	–	–	–
CCn1cc(C(=O)O)c(=O)c2cc(F)c(N3CCNCC3)nc21 [B Hydrochloric]	–	–	–	–	–	–	–	–	–	–	–	–	–	3	–	–	–	–	–	–	Conc. of CPD B [3]: 7000 µg/mL; pH of Solution ([3]; CPD B solutions): 1.83^c
CCn1cc(C(=O)O)c(=O)c2cc(F)c(N3CCNCC3)cc21 [A L-Glutamic]	5.5	5.2	254 mg/mL	5.18	no	5.05	5.05	no	no	5.15	no	5.08	174000 µg/mL	–	–	–	–	–	–	–	Conc. of CPD A [3]: 174000 µg/mL; pH of Solution ([3]; CPD A solutions): 5.08
CCn1cc(C(=O)O)c(=O)c2cc(F)c(N3CCNCC3)nc21 [B L-Aspartic]	–	–	–	–	–	–	–	–	–	–	–	–	–	4.80	4.83	4.71	4.94	4.82	no	yes	pH of Solution Lyo. ([1]; CPD B salt, lyophilized solid): 4.65; Solution 3 ppt 24 hr [2, 12]: yes; Solution 2 ppt 24 hr [2, 13]: no; Solution 4 ppt 24 hr [2, 14]: no; Solution 1 pH dil [2, 17]: 5.54; Solution 1 ppt 24 hr [2, 17]: no; pH of Solut. [2, 18]: 4.60; Concen. of Cpd B [2, 19]: 190000 µg/mL; pH of Solut. [2, 15]: 4.64; Concen. of Cpd B [2, 16]: 165000 µg/mL; pH of Solut. [2, 20]: 4.48; Concen. of Cpd B [2, 21]: 49800 µg/mL; Conc. of CPD B [3]: 165000 µg/mL; pH of Solution ([3]; CPD B solutions): 4.64
CCn1cc(C(=O)O)c(=O)c2cc(F)c(N3CCNCC3)nc21 [B Methane Sulphonic]	–	–	–	–	–	–	–	–	–	–	–	–	–	3.15	3.2	2.8	4.2	2.3	yes	yes	pH of Solution Lyo. ([1]; CPD B salt, lyophilized solid): 1.8; solubility ([1]; lyophilized solid, read-out: Conc. of CPD B mg/ml Lyo.): 200 mg/mL (≈ 624 mM); Solution 3 ppt 4 hr [2, 12]: yes; Solution 3 ppt 24 hr [2, 12]: yes; Solution 2 ppt 4 hr [2, 13]: hazy; Solution 2 ppt 24 hr [2, 13]: hazy; Solution 4 ppt 4 hr [2, 14]: yes; Solution 4 ppt 24 hr [2, 14]: yes; Solution 1 pH dil [2, 17]: 4.47; Solution 1 ppt 24 hr [2, 17]: no; pH of Solut. [2, 15]: 1.38; Concen. of Cpd B [2, 16]: 178000 µg/mL; pH of Solut. [2, 20]: 5.07; Concen. of Cpd B [2, 21]: 26200 µg/mL; Conc. of CPD B [3]: 211000 µg/mL; pH of Solution ([3]; CPD B solutions): 1.67^c
CCn1cc(C(=O)O)c(=O)c2cc(F)c(N3CCNCC3)nc21 [B L-Glutamic]	–	–	–	–	–	–	–	–	–	–	–	–	–	4.84	5.06	4.95	5.09	5.10	no	yes	pH of Solution Lyo. ([1]; CPD B salt, lyophilized solid): 4.8; Solution 3 ppt 24 hr [2, 12]: slight; Solution 2 ppt 4 hr [2, 13]: slight; Solution 2 ppt 24 hr [2, 13]: slight; Solution 4 ppt 24 hr [2, 14]: slight; Solution 1 pH dil [2, 17]: 4.99; Solution 1 ppt 24 hr [2, 17]: no; pH of Solut. [2, 18]: 5.20; Concen. of Cpd B [2, 19]: 154000 µg/mL; pH of Solut. [2, 15]: 4.98; Concen. of Cpd B [2, 16]: 160000 µg/mL; pH of Solut. [2, 20]: 4.95; Concen. of Cpd B [2, 21]: 48200 µg/mL; Conc. of CPD B [3]: 160000 µg/mL; pH of Solution ([3]; CPD B solutions): 4.98
CCn1cc(C(=O)O)c(=O)c2cc(F)c(N3CCNCC3)nc21 [B L-Cysteic]	–	–	–	–	–	–	–	–	–	–	–	–	–	–	2.9	2.8	3.9	2.8	yes	yes	Solution 3 ppt 4 hr [2, 12]: yes; Solution 3 ppt 24 hr [2, 12]: yes; Solution 2 ppt 4 hr [2, 13]: hazy; Solution 2 ppt 24 hr [2, 13]: hazy; Solution 4 ppt 4 hr [2, 14]: yes; Solution 4 ppt 24 hr [2, 14]: yes; Solution 1 pH dil [2, 17]: 3.29; Solution 1 ppt 24 hr [2, 17]: no; pH of Solut. [2, 15]: 2.78; Concen. of Cpd B [2, 16]: 221000 µg/mL; pH of Solut. [2, 20]: 2.96; Concen. of Cpd B [2, 21]: 52000 µg/mL; Conc. of CPD B [3]: 221000 µg/mL; pH of Solution ([3]; CPD B solutions): 2.78
CCn1cc(C(=O)O)c(=O)c2cc(F)c(N3CCNCC3)cc21 [A L-Cysteic]	–	–	–	3.17	no	2.82	2.68	no	no	3.70	slight	2.92	166000 µg/mL	–	–	–	–	–	–	–	Conc. of CPD A [3]: 166000 µg/mL; pH of Solution ([3]; CPD A solutions): 2.92
CCn1cc(C(=O)O)c(=O)c2cc(F)c(N3CCNCC3)cc21 [A D-Galacturonic]	4.9	4.0	256 mg/mL	5.36	no	5.18	5.20	no	slight	5.36	no	5.44	166000 µg/mL	–	–	–	–	–	–	–	solubility ([1]; crystalline solid, read-out: Conc. of CPD A mg/ml Cryst.): 183 mg/mL (≈ 573 mM)
